Experimental data from patent publication US10294202B2, “Pyrrolidinones as herbicides” (FMC Corporation, priority 2013, dated 2019).

Key:
[1] = test system: kochia; experiment: Test A pre-/postemergence herbicide test; assay type: in vivo, Kochia scoparia; conditions: for Plant response rating, Kochia: 0 to 100 scale
Excerpt: (§1) Seeds of plant species selected from bamyardgrass (Echinochloa crus-galli), kochia (Kochia scoparia), ragweed (common ragweed, Ambrosia elatior), ryegrass, Italian (Italian ryegrass, Lolium multiflorum), crabgrass, large (large crabgrass Digitaria sanguinalis), giant foxtail (Setaria faberii), morningglory (Ipomoea spp.), pigweed (Amaranthus retroflexus), velvetleaf (Abutilon theophrasti), wheat (Triticum aestivum), and corn (Zea mays) were planted into a blend of loam soil and sand and treated preemergence with a directed soil spray using test chemicals formulated in a non-phytotoxic solvent mixture which included a surfactant. At the same time, plants selected from these crop and weed species and also blackgrass (Alopecurus myosuroides), and galium (catchweed bedstraw, Galium aparine) were planted in pots containing the same blend of loam soil and sand and treated with postemergence applications of test chemicals formulated in the same manner. Plants ranged in height from 2 to 10 cm and were in the one- to two-leaf stage for the postemergence treatment. Treated plants and untreated controls were maintained in a greenhouse for approximately 10 days, after which time all treated plants were compared to untreated controls and visually evaluated for injury. Plant response ratings, summarized in Table A, are based on a 0 to 100 scale where 0 is no effect and 100 is complete control. A dash (-) response means no test result.

[2] = test system: pigweed; experiment: Test A pre-/postemergence herbicide test; assay type: in vivo, Amaranthus retroflexus; conditions: for Plant response rating, Pigweed: 0 to 100 scale
Procedure, shortened: (§2)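 Greenhouse pot test with pre- and postemergence application of surfactant-containing solvent formulations. Postemergence plants were 2–10 cm, one- to two-leaf stage. Response scored visually after ~10 days, 0 (no effect) to 100 (complete control).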

[3] = test system: ryegrass, Italian; experiment: Test A pre-/postemergence herbicide test; assay type: in vivo, Lolium multiflorum; conditions: for Plant response rating, Ryegrass, Italian: 0 to 100 scale
Excerpt: as §1

[4] = test system: blackgrass; experiment: Test A postemergence herbicide test; assay type: in vivo, Alopecurus myosuroides; conditions: for Plant response rating, Blackgrass: 125 g ai/ha, 0 to 100 scale, 0 is no effect, 100 is complete control; for Blackgrass plant response rating (0 to 100 scale, 0 is no effect, 100 is complete control): 500 g ai/ha
Procedure, shortened: (§3)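 Potted in loam soil/sand blend; postemergence application at 1–2 leaf stage (2–10 cm). Greenhouse ~10 d. Visual injury vs untreated, 0–100 scale; 100 = complete control.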

[5] = test system: corn; experiment: Test A pre-/postemergence herbicide test; assay type: in vivo, Zea mays; conditions: Postemergence; for Plant response rating, Corn: 125 g ai/ha, 0 to 100 scale, 0 is no effect, 100 is complete control; for Corn plant response rating (0 to 100 scale, 0 is no effect, 100 is complete control): 500 g ai/ha
Procedure, shortened: as §2

[6] = test system: barnyardgrass; experiment: Test A pre-/postemergence herbicide test; assay type: in vivo, Echinochloa crus-galli
Procedure, shortened: as §2

[7] = test system: giant foxtail; experiment: Test A pre-/postemergence herbicide test; assay type: in vivo, Setaria faberii; conditions: for Plant response rating, Foxtail, Giant: 0 to 100 scale
Procedure, shortened: as §2

[8] = test system: ragweed; experiment: Test A pre-/postemergence herbicide test; assay type: in vivo, Ambrosia elatior; conditions: for Plant response rating, Ragweed: 0 to 100 scale
Procedure, shortened: as §2

[9] = test system: wheat; experiment: Test A pre-/postemergence herbicide test; assay type: in vivo, Triticum aestivum; conditions: Postemergence; for Plant response rating, Wheat: 125 g ai/ha, 0 to 100 scale, 0 is no effect, 100 is complete control; for Wheat plant response rating (0 to 100 scale, 0 is no effect, 100 is complete control): 500 g ai/ha
Procedure, shortened: as §2

[10] = test system: galium; experiment: Test A postemergence herbicide test; assay type: in vivo, Galium aparine; conditions: for Plant response rating, Galium: 125 g ai/ha, 0 to 100 scale, 0 is no effect, 100 is complete control; for Galium plant response rating (0 to 100 scale, 0 is no effect, 100 is complete control): 500 g ai/ha
Procedure, shortened: as §3

[11] = 125 g ai/ha, visual rating, 0 no effect, 100 complete control, approximately 10 days, preemergence
[12] = Postemergence, 125 g ai/ha, 0 is no effect, 100 is complete control
[13] = preemergence, 500 g ai/ha, 0 is no effect and 100 is complete control
[14] = 125 g ai/ha, visual rating, 0 to 100 scale, 0 no effect, 100 complete control, approximately 10 days, preemergence
[15] = Postemergence, 125 g ai/ha, 0 to 100 scale, 0 is no effect, 100 is complete control
[16] = preemergence, 500 g ai/ha, 0 to 100 scale (0 no effect, 100 complete control)

SMILES	Plant response rating, Kochia [1, 11]	Plant response rating, Kochia [1, 12]	Kochia plant response rating (0 to 100 scale, 0 is no effect, 100 is complete control) ([1]; Postemergence, 500 g ai/ha)	Plant response rating, Kochia [1, 13]	Plant response rating, Pigweed [2, 11]	Plant response rating, Pigweed [2, 12]	Pigweed plant response rating (0 to 100 scale, 0 is no effect, 100 is complete control) ([2]; Postemergence, 500 g ai/ha)	Plant response rating, Pigweed [2, 13]	Plant response rating, Ryegrass, Italian [3, 11]	Plant response rating, Ryegrass, Italian [3, 12]	Ryegrass, Italian plant response rating (0 to 100 scale, 0 is no effect, 100 is complete control) ([3]; Postemergence, 500 g ai/ha)	Plant response rating, Ryegrass, Italian [3, 13]	Plant response rating, Blackgrass [4]	Blackgrass plant response rating (0 to 100 scale, 0 is no effect, 100 is complete control) [4]	Plant response rating, Corn [5]	Corn plant response rating (0 to 100 scale, 0 is no effect, 100 is complete control) [5]	Plant response rating, Barnyardgrass [6, 14]	Plant response rating, Barnyardgrass [6, 15]	Barnyardgrass plant response rating (0 to 100 scale, 0 is no effect, 100 is complete control) ([6]; Postemergence, 500 g ai/ha)	Plant response rating, Barnyardgrass [6, 16]	also measured
O=C1NCC(c2cc(F)cc(F)c2)C1C(=O)Nc1cccc(F)c1F (racemic) [Compound 157]	50	20	30	70	0	0	30	50	30	30	30	60	30	30	50	80	90	70	80	90	Plant response rating, Foxtail, Giant [7, 11]: 90; Plant response rating, Foxtail, Giant [7, 12]: 80; Foxtail, Giant plant response rating (0 to 100 scale, 0 is no effect, 100 is complete control) ([7]; Postemergence, 500 g ai/ha): 80; Plant response rating, Foxtail, Giant ([7]; preemergence, 500 g ai/ha): 90; Plant response rating, Ragweed [8, 11]: 30; Plant response rating, Ragweed [8, 12]: 20; Ragweed plant response rating (0 to 100 scale, 0 is no effect, 100 is complete control) ([8]; Postemergence, 500 g ai/ha): 40; Plant response rating, Ragweed [8, 13]: 50; Plant response rating, Wheat [9]: 40; Wheat plant response rating (0 to 100 scale, 0 is no effect, 100 is complete control) [9]: 70; Plant response rating, Galium [10]: 40; Galium plant response rating (0 to 100 scale, 0 is no effect, 100 is complete control) [10]: 40
O=C1NCC(c2ccc(OC(F)(F)C(F)F)cc2)C1C(=O)Nc1cccc(F)c1F (racemic) [Compound 172]	30	0	0	30	0	0	0	0	0	0	0	0	0	0	0	0	0	0	20	20	Plant response rating, Foxtail, Giant [7, 11]: 20; Plant response rating, Foxtail, Giant [7, 12]: 0; Foxtail, Giant plant response rating (0 to 100 scale, 0 is no effect, 100 is complete control) ([7]; Postemergence, 500 g ai/ha): 30; Plant response rating, Foxtail, Giant ([7]; preemergence, 500 g ai/ha): 30; Plant response rating, Ragweed [8, 11]: 0; Plant response rating, Ragweed [8, 12]: 0; Ragweed plant response rating (0 to 100 scale, 0 is no effect, 100 is complete control) ([8]; Postemergence, 500 g ai/ha): 0; Plant response rating, Ragweed [8, 13]: 0; Plant response rating, Wheat [9]: 0; Wheat plant response rating (0 to 100 scale, 0 is no effect, 100 is complete control) [9]: 0; Plant response rating, Galium [10]: 0; Galium plant response rating (0 to 100 scale, 0 is no effect, 100 is complete control) [10]: 0
